Source: ChEMBL document CHEMBL3046635, “Synthesis and Herbicidal Activity of New Pyrazole-4-carboxamide Derivatives” (J Pestic Sci, 2004)
Activity calls are given as the source filed them. Unless noted, no cut-off for these calls is given here.

What follows are compounds tested on Rotala indica (assay: Pre-emergence herbicidal activity against Rotala indica at 500 g a.i/ha measured after 14 days). Settings: not given.
Type: functional, organism-based
`Cn1cc(C(=O)NOc2ccccc2)c(OCc2cccc(C(F)(F)F)c2)n1` was tested, and the Activity was “Active”.

These compounds were tested on Elatine triandra (assay: Post-emergence herbicidal activity against Elatine triandra assessed as bleaching of stem/leaf parts). Settings: not given.
Type: functional, organism-based
`Cn1cc(C(=O)NOc2ccccc2)c(OCc2cccc(C(F)(F)F)c2)n1` was tested, and the Activity was “Active”.

The compounds below were run on Lindernia procumbens (assay: Pre-emergence herbicidal activity against Lindernia procumbens at 500 g a.i/ha measured after 14 days). Settings: not given.
Type: functional, organism-based
With `Cn1cc(C(=O)NOc2ccccc2)c(OCc2cccc(C(F)(F)F)c2)n1` the Activity was “Active”.

The compounds below were run on Rotala indica (assay: Post-emergence herbicidal activity against Rotala indica assessed as bleaching of stem/leaf parts). Settings: not given.
Type: functional, organism-based
For `Cn1cc(C(=O)NOc2ccccc2)c(OCc2cccc(C(F)(F)F)c2)n1`, the Activity was “Active”.

Each compound was assayed on Pontederia vaginalis (assay: Pre-emergence herbicidal activity against Monochoria vaginalis at 500 g a.i/ha measured after 14 days). Settings: not given.
Type: functional, organism-based
For `Cn1cc(C(=O)NOc2ccccc2)c(OCc2cccc(C(F)(F)F)c2)n1`, the Activity was “Active”.

The compounds below were run on Rotala indica (assay: Pre-emergence herbicidal activity against Rotala indica assessed as bleaching of stem/leaf parts). Settings: not given.
Type: functional, organism-based
With `Cn1cc(C(=O)NOc2ccccc2)c(OCc2cccc(C(F)(F)F)c2)n1` the Activity was “Active”.

The compounds below were run on Eleocharis acicularis (assay: Pre-emergence herbicidal activity against Eleocharis acicularis at 500 g a.i/ha measured after 14 days). Settings: not given.
Type: functional, organism-based
`Cn1cc(C(=O)NOc2ccccc2)c(OCc2cccc(C(F)(F)F)c2)n1` was tested, and the Activity was “Active”.

Each compound was assayed on Pontederia vaginalis (assay: Post-emergence herbicidal activity against Monochoria vaginalis assessed as bleaching of stem/leaf parts). Settings: not given.
Type: functional, organism-based
`Cn1cc(C(=O)NOc2ccccc2)c(OCc2cccc(C(F)(F)F)c2)n1` was tested, and the Activity was “Active”.

Each compound was assayed on Schoenoplectiella juncoides (assay: Pre-emergence herbicidal activity against Schoenoplectiella juncoides at 500 g a.i/ha measured after 14 days). Settings: not given.
Type: functional, organism-based
In the case of `Cn1cc(C(=O)NOc2ccccc2)c(OCc2cccc(C(F)(F)F)c2)n1`, the Activity is reported as “Active”.

What follows are compounds tested on Cyperus difformis (assay: Post-emergence herbicidal activity against Cyperus difformis assessed as bleaching of stem/leaf parts). Settings: not given.
Type: functional, organism-based
For `Cn1cc(C(=O)NOc2ccccc2)c(OCc2cccc(C(F)(F)F)c2)n1`, the Activity was “Active”.

What follows are compounds tested on Ammannia multiflora (assay: Pre-emergence herbicidal activity against Ammannia multiflora assessed as bleaching of stem/leaf parts). Settings: not given.
Type: functional, organism-based
In the case of `Cn1cc(C(=O)NOc2ccccc2)c(OCc2cccc(C(F)(F)F)c2)n1`, the Activity is reported as “Active”.

These compounds were tested on Echinochloa oryzicola (assay: Pre-emergence herbicidal activity against Echinochloa oryzicola assessed as bleaching of stem/leaf parts). Settings: not given.
Type: functional, organism-based
For `Cn1cc(C(=O)NOc2ccccc2)c(OCc2cccc(C(F)(F)F)c2)n1`, the Activity was “Active”.

The compounds below were run on Ammannia multiflora (assay: Post-emergence herbicidal activity against Ammannia multiflora assessed as bleaching of stem/leaf parts). Settings: not given.
Type: functional, organism-based
In the case of `Cn1cc(C(=O)NOc2ccccc2)c(OCc2cccc(C(F)(F)F)c2)n1`, the Activity is reported as “Active”.

What follows are compounds tested on Elatine triandra (assay: Pre-emergence herbicidal activity against Elatine triandra assessed as bleaching of stem/leaf parts). Settings: not given.
Type: functional, organism-based
In the case of `Cn1cc(C(=O)NOc2ccccc2)c(OCc2cccc(C(F)(F)F)c2)n1`, the Activity is reported as “Active”.

What follows are compounds tested on Echinochloa oryzicola (assay: Post-emergence herbicidal activity against Echinochloa oryzicola assessed as bleaching of stem/leaf parts). Settings: not given.
Type: functional, organism-based
For `Cn1cc(C(=O)NOc2ccccc2)c(OCc2cccc(C(F)(F)F)c2)n1`, the Activity was “Active”.

These compounds were tested on Ammannia multiflora (assay: Pre-emergence herbicidal activity against Ammannia multiflora at 500 g a.i/ha measured after 14 days). Settings: not given.
Type: functional, organism-based
`Cn1cc(C(=O)NOc2ccccc2)c(OCc2cccc(C(F)(F)F)c2)n1` was tested, and the Activity was “Active”.

These compounds were tested on Echinochloa oryzicola (assay: Pre-emergence herbicidal activity against Echinochloa oryzicola at 500 g a.i/ha measured after 14 days). Settings: not given.
Type: functional, organism-based
`Cn1cc(C(=O)NOc2ccccc2)c(OCc2cccc(C(F)(F)F)c2)n1` was tested, and the Activity was “Active”.

Each compound was assayed on Cyperus difformis (assay: Pre-emergence herbicidal activity against Cyperus difformis at 100 g a.i/ha measured after 14 days). Settings: not given.
Type: functional, organism-based
`Cn1cc(C(=O)NOc2ccccc2)c(OCc2cccc(C(F)(F)F)c2)n1` was tested, and the Activity was “Active”.

The compounds below were run on Schoenoplectiella juncoides (assay: Post-emergence herbicidal activity against Schoenoplectiella juncoides assessed as bleaching of stem/leaf parts). Settings: not given.
Type: functional, organism-based
With `Cn1cc(C(=O)NOc2ccccc2)c(OCc2cccc(C(F)(F)F)c2)n1` the Activity was “Active”.

Each compound was assayed on Lindernia procumbens (assay: Pre-emergence herbicidal activity against Lindernia procumbens at 100 g a.i/ha measured after 14 days). Settings: not given.
Type: functional, organism-based
`Cn1cc(C(=O)NOc2ccccc2)c(OCc2cccc(C(F)(F)F)c2)n1` was tested, and the Activity was “Active”.

Each compound was assayed on Elatine triandra (assay: Pre-emergence herbicidal activity against Elatine triandra at 500 g a.i/ha measured after 14 days). Settings: not given.
Type: functional, organism-based
`Cn1cc(C(=O)NOc2ccccc2)c(OCc2cccc(C(F)(F)F)c2)n1` was tested, and the Activity was “Active”.

These compounds were tested on Pontederia vaginalis (assay: Pre-emergence herbicidal activity against Monochoria vaginalis at 100 g a.i/ha measured after 14 days). Settings: not given.
Type: functional, organism-based
For `Cn1cc(C(=O)NOc2ccccc2)c(OCc2cccc(C(F)(F)F)c2)n1`, the Activity was “Active”.

The compounds below were run on Eleocharis acicularis (assay: Post-emergence herbicidal activity against Eleocharis acicularis assessed as bleaching of stem/leaf parts). Settings: not given.
Type: functional, organism-based
With `Cn1cc(C(=O)NOc2ccccc2)c(OCc2cccc(C(F)(F)F)c2)n1` the Activity was “Active”.

The compounds below were run on Rotala indica (assay: Pre-emergence herbicidal activity against Rotala indica at 100 g a.i/ha measured after 14 days). Settings: not given.
Type: functional, organism-based
With `Cn1cc(C(=O)NOc2ccccc2)c(OCc2cccc(C(F)(F)F)c2)n1` the Activity was “Active”.

The compounds below were run on Schoenoplectiella juncoides (assay: Pre-emergence herbicidal activity against Schoenoplectiella juncoides at 100 g a.i/ha measured after 14 days). Settings: not given.
Type: functional, organism-based
For `Cn1cc(C(=O)NOc2ccccc2)c(OCc2cccc(C(F)(F)F)c2)n1`, the Activity was “inactive”.

What follows are compounds tested on Cyperus difformis (assay: Pre-emergence herbicidal activity against Cyperus difformis assessed as bleaching of stem/leaf parts). Settings: not given.
Type: functional, organism-based
For `Cn1cc(C(=O)NOc2ccccc2)c(OCc2cccc(C(F)(F)F)c2)n1`, the Activity was “Active”.

What follows are compounds tested on Lindernia procumbens (assay: Post-emergence herbicidal activity against Lindernia procumbens assessed as bleaching of stem/leaf parts). Settings: not given.
Type: functional, organism-based
With `Cn1cc(C(=O)NOc2ccccc2)c(OCc2cccc(C(F)(F)F)c2)n1` the Activity was “Active”.

The compounds below were run on Schoenoplectiella juncoides (assay: Pre-emergence herbicidal activity against Schoenoplectiella juncoides assessed as bleaching of stem/leaf parts). Settings: not given.
Type: functional, organism-based
`Cn1cc(C(=O)NOc2ccccc2)c(OCc2cccc(C(F)(F)F)c2)n1` was tested, and the Activity was “Active”.

These compounds were tested on Pontederia vaginalis (assay: Pre-emergence herbicidal activity against Monochoria vaginalis assessed as bleaching of stem/leaf parts). Settings: not given.
Type: functional, organism-based
In the case of `Cn1cc(C(=O)NOc2ccccc2)c(OCc2cccc(C(F)(F)F)c2)n1`, the Activity is reported as “Active”.

What follows are compounds tested on Lindernia procumbens (assay: Pre-emergence herbicidal activity against Lindernia procumbens assessed as bleaching of stem/leaf parts). Settings: not given.
Type: functional, organism-based
In the case of `Cn1cc(C(=O)NOc2ccccc2)c(OCc2cccc(C(F)(F)F)c2)n1`, the Activity is reported as “Active”.

What follows are compounds tested on Echinochloa oryzicola (assay: Pre-emergence herbicidal activity against Echinochloa oryzicola at 100 g a.i/ha measured after 14 days). Settings: not given.
Type: functional, organism-based
In the case of `Cn1cc(C(=O)NOc2ccccc2)c(OCc2cccc(C(F)(F)F)c2)n1`, the Activity is reported as “Active”.

These compounds were tested on Oryza sativa (assay: Phytotoxicity against Oryza sativa cv. Koshihikari (rice) at 100 g a.i/ha measured after 14 days). Settings: in vivo, 336 h.
Type: organism-based
With `Cn1cc(C(=O)NOc2ccccc2)c(OCc2cccc(C(F)(F)F)c2)n1` the Activity was “Non-toxic”.

What follows are compounds tested on Cyperus difformis (assay: Pre-emergence herbicidal activity against Cyperus difformis at 500 g a.i/ha measured after 14 days). Settings: not given.
Type: functional, organism-based
For `Cn1cc(C(=O)NOc2ccccc2)c(OCc2cccc(C(F)(F)F)c2)n1`, the Activity was “Active”.

The compounds below were run on Eleocharis acicularis (assay: Pre-emergence herbicidal activity against Eleocharis acicularis at 100 g a.i/ha measured after 14 days). Settings: not given.
Type: functional, organism-based
In the case of `Cn1cc(C(=O)NOc2ccccc2)c(OCc2cccc(C(F)(F)F)c2)n1`, the Activity is reported as “Active”.

These compounds were tested on Oryza sativa (assay: Phytotoxicity against Oryza sativa cv. Koshihikari (rice) at 500 g a.i/ha measured after 14 days). Settings: in vivo, 336 h.
Type: organism-based
With `Cn1cc(C(=O)NOc2ccccc2)c(OCc2cccc(C(F)(F)F)c2)n1` the Activity was “Non-toxic”.

These compounds were tested on Elatine triandra (assay: Pre-emergence herbicidal activity against Elatine triandra at 100 g a.i/ha measured after 14 days). Settings: not given.
Type: functional, organism-based
In the case of `Cn1cc(C(=O)NOc2ccccc2)c(OCc2cccc(C(F)(F)F)c2)n1`, the Activity is reported as “Active”.

Each compound was assayed on Ammannia multiflora (assay: Pre-emergence herbicidal activity against Ammannia multiflora at 100 g a.i/ha measured after 14 days). Settings: not given.
Type: functional, organism-based
For `Cn1cc(C(=O)NOc2ccccc2)c(OCc2cccc(C(F)(F)F)c2)n1`, the Activity was “Active”.

The compounds below were run on Eleocharis acicularis (assay: Pre-emergence herbicidal activity against Eleocharis acicularis assessed as bleaching of stem/leaf parts). Settings: not given.
Type: functional, organism-based
With `Cn1cc(C(=O)NOc2ccccc2)c(OCc2cccc(C(F)(F)F)c2)n1` the Activity was “Active”.
